Test results published in ChEMBL document CHEMBL1201862, “PubChem BioAssay data set” (2004).
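Tested at 5 concentrations; 48 h exposure; 96-well plates; endpoints linearly interpolated, else capped at highest concentration. At the GI50, growth is halved.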 Calls of active or inactive are those of the source. No stated cut-off is given here; in the data, active = GI50 up to about 1.1 µM and inactive = higher.

What was measured:
Experiment in all cases: NCI tumour cell line growth inhibition, 48 h
A498 = system: A498
A549 = system: A549
CAKI-1 = system: CAKI-1
CCRF-CEM = system: CCRF-CEM
COLO 205 = system: COLO 205
DLD-1 = system: DLD-1
DMS-273 = system: DMS-273
EKVX = system: EKVX
HCC 2998 = system: HCC 2998
HCT-116 = system: HCT-116
HCT-15 = system: HCT-15
HL-60 = system: HL-60
HOP-18 = system: HOP-18
HOP-62 = system: HOP-62
HOP-92 = system: HOP-92
HT-29 = system: HT-29
IGROV-1 = system: IGROV-1
K562 = system: K562
KM-20L2 = system: KM-20L2
KM12 = system: KM12
LOX IMVI = system: LOX IMVI
M19-MEL = system: M19-MEL
MCF7 = system: MCF7
MOLT-4 = system: MOLT-4
Malme-3M = system: Malme-3M
NCI-H226 = system: NCI-H226
NCI-H23 = system: NCI-H23
NCI-H460 = system: NCI-H460
NCI-H522 = system: NCI-H522
NCI/ADR-RES = system: NCI/ADR-RES
OVCAR-3 = system: OVCAR-3
OVCAR-4 = system: OVCAR-4
OVCAR-5 = system: OVCAR-5
OVCAR-8 = system: OVCAR-8
RPMI-8226 = system: RPMI-8226
RXF 393 = system: RXF 393
SF-268 = system: SF-268
SF-295 = system: SF-295
SF-539 = system: SF-539
SK-MEL-28 = system: SK-MEL-28
SK-MEL-2 = system: SK-MEL-2
SK-MEL-5 = system: SK-MEL-5
SK-OV-3 = system: SK-OV-3
SN12C = system: SN12C
SNB-19 = system: SNB-19
SNB-75 = system: SNB-75
SNB-78 = system: SNB-78
SW-620 = system: SW-620
U-251 = system: U-251
UACC-257 = system: UACC-257
UACC-62 = system: UACC-62
UO-31 = system: UO-31
XF498 = system: XF498
DMS-114 = system: DMS-114

Compound: COc1ccc2c(c1O)-c1cc(O)cc3c1[C@@H](C2)N(C)CC3
- GI50 (A498): 49.9 µM (inactive)
- GI50 (A549): 77.1 µM (inactive)
- GI50 (CAKI-1): 12.3 µM (inactive)
- GI50 (CCRF-CEM): 81.1 µM (inactive)
- GI50 (COLO 205): 50.7 µM (inactive)
- GI50 (DLD-1): 43.2 µM (inactive)
- GI50 (DMS-273): 65.8 µM (inactive)
- GI50 (EKVX): 98.4 µM (inactive)
- GI50 (HCC 2998): 73.6 µM (inactive)
- GI50 (HCT-116): 27 µM (inactive)
- GI50 (HCT-15): 71.1 µM
- GI50 (HL-60): 11 µM (inactive)
- GI50 (HOP-18): 67.3 µM (inactive)
- GI50 (HOP-62): 32.9 µM (inactive)
- GI50 (HOP-92): 19 µM (inactive)
- GI50 (HT-29): > 92.3 µM (inactive)
- GI50 (IGROV-1): 72.8 µM (inactive)
- GI50 (K562): 67.6 µM (inactive)
- GI50 (KM-20L2): 2.84 µM (inactive)
- GI50 (KM12): 54.8 µM (inactive)
- GI50 (LOX IMVI): 56.6 µM (inactive)
- GI50 (M19-MEL): 67.8 µM (inactive)
- GI50 (MCF7): 61.8 µM (inactive)
- GI50 (MOLT-4): 66.1 µM (inactive)
- GI50 (Malme-3M): 64 µM (inactive)
- GI50 (NCI-H226): 47 µM (inactive)
- GI50 (NCI-H23): 96.8 µM (inactive)
- GI50 (NCI-H460): 74 µM (inactive)
- GI50 (NCI-H522): 121 µM (inactive)
- GI50 (NCI/ADR-RES): 75.9 µM (inactive)
- GI50 (OVCAR-3): 55.8 µM (inactive)
- GI50 (OVCAR-4): 60.5 µM (inactive)
- GI50 (OVCAR-5): 6.41 µM (inactive)
- GI50 (OVCAR-8): 8.79 µM (inactive)
- GI50 (RPMI-8226): 75.3 µM (inactive)
- GI50 (RXF 393): 55.7 µM (inactive)
- GI50 (SF-268): 75.3 µM (inactive)
- GI50 (SF-295): 72.3 µM (inactive)
- GI50 (SF-539): 81.1 µM (inactive)
- GI50 (SK-MEL-28): 80 µM (inactive)
- GI50 (SK-MEL-2): 27.5 µM (inactive)
- GI50 (SK-MEL-5): 62.2 µM (inactive)
- GI50 (SK-OV-3): 203 µM (inactive)
- GI50 (SN12C): 82 µM (inactive)
- GI50 (SNB-19): 101 µM (inactive)
- GI50 (SNB-75): 60.7 µM (inactive)
- GI50 (SNB-78): 83 µM (inactive)
- GI50 (SW-620): 61.8 µM (inactive)
- GI50 (U-251): 10.7 µM (inactive)
- GI50 (UACC-257): 71 µM (inactive)
- GI50 (UACC-62): 70 µM (inactive)
- GI50 (UO-31): 44.2 µM (inactive)
- GI50 (XF498): 93.8 µM (inactive)

Compound: O=C1c2cccc3cc4ccccc4c(c23)C(=O)N1CCNCCNCCNCCN1C(=O)c2cccc3cc4ccccc4c(c23)C1=O
- GI50 (A498): 0.19 µM (active)
- GI50 (A549): < 0.01 µM (active)
- GI50 (CAKI-1): < 0.01 µM (active)
- GI50 (CCRF-CEM): < 0.01 µM (active)
- GI50 (COLO 205): < 0.01 µM (active)
- GI50 (DLD-1): < 0.014 µM (active)
- GI50 (DMS-114): 11.4 nM (active)
- GI50 (DMS-273): < 0.01 µM (active)
- GI50 (EKVX): 0.129 µM (active)
- GI50 (HCC 2998): < 0.0134 µM (active)
- GI50 (HCT-116): < 0.01 µM (active)
- GI50 (HCT-15): < 0.01 µM
- GI50 (HL-60): < 0.01 µM (active)
- GI50 (HOP-18): 0.0405 µM (active)
- GI50 (HOP-92): 0.0111 µM (active)
- GI50 (HT-29): < 0.01 µM (active)
- GI50 (IGROV-1): < 0.01 µM (active)
- GI50 (K562): < 0.01 µM (active)
- GI50 (KM-20L2): < 0.0139 µM (active)
- GI50 (LOX IMVI): < 0.01 µM (active)
- GI50 (M19-MEL): < 0.01 µM (active)
- GI50 (MCF7): < 0.01 µM (active)
- GI50 (MOLT-4): < 0.01 µM (active)
- GI50 (Malme-3M): 0.126 µM (active)
- GI50 (NCI-H226): 33.6 µM (inactive)
- GI50 (NCI-H23): < 0.01 µM (active)
- GI50 (NCI-H460): < 0.01 µM (active)
- GI50 (NCI/ADR-RES): < 0.0136 µM (active)
- GI50 (OVCAR-3): < 0.033 µM (active)
- GI50 (OVCAR-4): < 0.01 µM (active)
- GI50 (OVCAR-5): 0.158 µM (active)
- GI50 (OVCAR-8): < 0.01 µM (active)
- GI50 (RXF 393): < 0.01 µM (active)
- GI50 (SF-268): < 0.01 µM (active)
- GI50 (SF-295): < 0.01 µM (active)
- GI50 (SF-539): 0.0243 µM (active)
- GI50 (SK-MEL-28): < 0.01 µM (active)
- GI50 (SK-MEL-2): 0.119 µM (active)
- GI50 (SK-MEL-5): 0.0243 µM (active)
- GI50 (SN12C): < 0.027 µM (active)
- GI50 (SNB-19): < 0.01 µM (active)
- GI50 (SNB-75): < 0.0141 µM (active)
- GI50 (SNB-78): < 0.01 µM (active)
- GI50 (SW-620): < 0.01 µM (active)
- GI50 (U-251): < 0.01 µM (active)
- GI50 (UACC-257): 0.201 µM (active)
- GI50 (UACC-62): < 0.01 µM (active)
- GI50 (UO-31): 0.0335 µM (active)
- GI50 (XF498): 0.0131 µM (active)
